Here are results for 4 molecules from patent US12378221B2, “Salts of obicetrapib and processes for their manufacture and intermediates thereof” (NewAmsterdam Pharma B.V., priority 2022, dated 2025).

The structures appear in SMILES notation. Where a name gives a salt, the structure may show the parent alone.

The nature of series [1]: Moisture uptake / hygroscopicity. Type of series: physicochemical. The source says:
When exposed to relative humidities approaching 90%, moisture uptake has been measured to be typically less than about 5% for example. […] Other drawbacks commonly associated with manufacturing and using amorphous materials are similarly not present. For example, amorphous materials are often challenging to make chemically pure.

The nature of series [2]: Loss of crystallinity on drying, by XRPD (FIG. 18). In kind it is physicochemical. Conditions: 48 hours at 55° C. at a pressure of 2 mbar. Here is the method: Upon stress, crystalline obicetrapib HCl loses its crystallinity. In FIG. 18, pattern 2 reflects crystalline obicetrapib HCl subject to a mild drying treatment whereby surface solvent was removed and it can be seen that this compound is crystalline. By comparison, the sample whose x-ray powder diffraction was measured in pattern 1 was subject to a stronger drying treatment at 48 hours at 55° C. at a pressure of 2 mbar. […] The amorphous pattern, therefore, represents HCl obicetrapib which is not crystalline obicetrapib. It may be obicetrapib, but is believed to have HCl associated with the obicetrapib as a solvate and thus is HCl obicetrapib, but with a lower chloride content than typically found in the ranges found for crystalline obicetrapib HCl. In some embodiments, that chloride content is less than 0.1% by weight such as between about 0.01% and 0.1% by weight.
Diffraction patterns were measured using a Thermo Fisher Scientific ARL Equinox 1000 powder diffractometer. The diffractometer is equipped with a copper source and a germanium (111) monochromator providing monochromatic Cu Kα1 radiation, and a position sensitive gas-ionization detector.
Samples were measured in reflection mode using an A1 sample holder without any further preparation (i.e., grinding). […]

Series [3] in a line: Solubility in water at 20° C. Type of series: physicochemical. The source says:
Solubility is especially challenging with obicetrapib. […] It would be desirable to have a solid form of obicetrapib that would deliver a larger amount of obicetrapib.

Series [4] concerns the target T1, Cholesterol Ester Transfer Protein (CETP) (Homo sapiens, UniProt P11597).
T1 construct: CETP is a plasma protein secreted primarily by liver and adipose tissue; host or cells: endogenous plasma CETP of dosed clinical-study subjects
T1 sequence (P11597 18-493): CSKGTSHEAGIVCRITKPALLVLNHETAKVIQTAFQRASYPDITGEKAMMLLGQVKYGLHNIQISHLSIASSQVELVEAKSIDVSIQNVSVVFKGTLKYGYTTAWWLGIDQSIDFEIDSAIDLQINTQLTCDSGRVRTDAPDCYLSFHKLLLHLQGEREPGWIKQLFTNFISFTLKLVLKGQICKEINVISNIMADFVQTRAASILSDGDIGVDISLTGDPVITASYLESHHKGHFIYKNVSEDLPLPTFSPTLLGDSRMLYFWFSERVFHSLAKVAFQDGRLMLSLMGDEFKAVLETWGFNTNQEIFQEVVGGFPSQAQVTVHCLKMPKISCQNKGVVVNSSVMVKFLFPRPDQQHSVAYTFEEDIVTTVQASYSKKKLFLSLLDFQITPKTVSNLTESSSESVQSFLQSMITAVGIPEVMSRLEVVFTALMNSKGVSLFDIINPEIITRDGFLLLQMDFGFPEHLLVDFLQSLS
Conditions: repeated daily dosages (once a day) as low as 2.5 mg; cited from earlier work.

For series [5] the following is noted: clinical studies; cited from earlier work.
Series [6] in a line: Physical stability at 70° C./75% relative humidity, by XRPD. Type of series: physicochemical. The source says: FIG. 6 is a plot of x-ray powder diffraction pattern taken of crystalline obicetrapib hemicalcium, and FIG. 7 is a plot of x-ray powder diffraction patterns taken of crystalline obicetrapib hemicalcium under stress conditions. In FIG. 7, there are four diffraction patterns shown based on stability study set forth in Example 27. Pattern 1 is an x-ray powder diffraction pattern of a sample of amorphous obicetrapib hemicalcium. Pattern 2 is the x-ray powder diffraction pattern of a sample of crystalline obicetrapib hemicalcium. In pattern 3, the sample of crystalline obicetrapib hemicalcium was exposed to 70° C. at 75% relative humidity for one day. […] was taken before the sample was placed on stability.
XRPD was performed with Panalytical X'Pert^3 Powder diffractometer using an incident beam of Cu radiation produced using an Empyran tube, fine focused source, on a silicon zero-background holder. […] Approximately 5 to 10 mg of sample was placed on a silicon zero-background holder and flattened manually using an aluminum spatula to minimize difference in the overall sample height. The holder was then loaded on the instrument for analysis. The XRPD parameters used are listed in Table 10.
Stability study was conducted on crystalline and amorphous forms of obicetrapib at 70° C./75% relative humidity (RH). The solids were placed into a 4.0 ml glass vial without caps (open condition) and stored at 70° C./75% RH. […] The solids were analyzed by XRPD for physical stability and by HPLC for chemical purity. The sample collected at each time point was dissolved in methanol before HPLC analysis. In order to minimize the effect of potential analyte adsorption on the filter, the initial 0.5 mL of supernatant passing through the filter was discarded prior to collecting sample for HPLC analysis. Purity for each sample was determined based on peak area percent and compared to the sample at T=0.

For the molecule `CCOC(=O)N1c2ccc(C(F)(F)F)cc2[C@@H](N(Cc2cc(C(F)(F)F)cc(C(F)(F)F)c2)c2ncc(OCCCC(=O)O)cn2)C[C@H]1CC` [crystalline obicetrapib HCl, (2R,4S)-4-{[3,5-bis(trifluoromethyl)benzyl]-[5-(3-carboxypropoxy)pyrimidin-2-yl]amino}-2-ethyl-6-trifluoromethyl-3,4-dihydro-2H-quinoline-1-carboxylic acid ethyl ester hydrochloride], the hygroscopicity entry in series [1] is “hygroscopic”. For the same molecule, in series [2], the “solid form after drying (XRPD)” value is on record as “changed the material from crystalline to amorphous”.

For `CCOC(=O)N1c2ccc(C(F)(F)F)cc2[C@@H](N(Cc2cc(C(F)(F)F)cc(C(F)(F)F)c2)c2ncc(OCCCC(=O)O)cn2)C[C@H]1CC` [obicetrapib, (2R,4S)-4-{[3,5 bis(trifluoromethyl)benzyl]-[5-(3-carboxypropoxy)pyrimidin-2-yl]amino}-2-ethyl-6-trifluoromethyl-3,4-dihydro-2H-quinoline-1-carboxylic acid ethyl ester], in series [3], the solubility in water result is given as “less than 0.1 mg/mL”. Also, the CETP inhibition entry in series [4] is on record as “near complete CETP inhibition”. Besides, the serious side effects entry in series [5] was “does not lead to serious side effects”.

For the molecule `CCOC(=O)N1c2ccc(C(F)(F)F)cc2[C@@H](N(Cc2cc(C(F)(F)F)cc(C(F)(F)F)c2)c2ncc(OCCCC(=O)[O-])cn2)C[C@H]1CC.CCOC(=O)N1c2ccc(C(F)(F)F)cc2[C@@H](N(Cc2cc(C(F)(F)F)cc(C(F)(F)F)c2)c2ncc(OCCCC(=O)[O-])cn2)C[C@H]1CC.[Ca+2]` [Crystalline obicetrapib hemicalcium, reference compound], the “physical stability of solid form (XRPD)” value in series [6] (7 days, open vial) was “the result remains the same”; in series [6] (one day, open vial), “near total loss of crystallinity”.

With `CCOC(=O)N1c2ccc(C(F)(F)F)cc2[C@@H](N(Cc2cc(C(F)(F)F)cc(C(F)(F)F)c2)c2ncc(OCCCC(=O)O)cn2)C[C@H]1CC` [Amorphous obicetrapib hemicalcium], the “physical stability of solid form (XRPD)” value in series [6] (7 days, open vial) was “remained amorphous”; in series [6] (14 days), “remained amorphous”.
